Data: patent publication US8044206B2, “Nitrogen—containing heterocyclic derivatives having 2,6-disubstituted styryl” (Astellas Pharma Inc., priority 2003, dated 2011)
Counter-ions that a name gives are not always drawn.

Key:
[1] = tested on: mice with streptozotocin (STZ)-induced diabetic neuropathy; test: Analgesic action in mice with streptozotocin (STZ)-induced diabetic neuropathy, tail pinch test; assay type: in vivo; details: male ICR mice, Day 15 after STZ, oral 30 mg/kg, 45 minutes prior to measurement, latency after minus before administration
Method: Representative compounds of Compound (I) of the present invention were assessed for the analgesic action in mice with streptozotocin (STZ)-induced diabetic neuropathy to confirm the effect on neuropathic pain. The assessment was performed by the method of Kamei et al. (Pharmacology Biochemistry & Behavior 39, 541-544, 1991) with some modifications.
Male ICR mice of 4 weeks old were intraperitoneally injected with 200 mg/kg weight of STZ to prepare mice with diabetic neuropathic pain. The analgesic action was assessed by the tail pinch test. […] On Day 14 following the STZ injection, a pretest was carried out to determine the response latency before the administration of a test compound. Only the animals showing not longer than 3 seconds of the response latency in the pretest were used for the test compound assessment on the following day (Day 15 after STZ injection).
In the test compound assessment, the response latency after the administration of a test compound was measured. The test compound was orally administered at a dose of 30 mg/kg, 45 minutes prior to the response latency measurement
The analgesic action of a test compound is expressed as prolongation of latency (in seconds) calculated by the formula: (response latency after administration of a test compound)−(response latency before administration of a test compound).

[2] = tested on: sodium channel; test: [14C] guanidine uptake induced by veratridine in rat cerebral cortex primary neurons (sodium channel inhibitory action); assay type: cell-based; details: [14C] guanidine uptake induced by 100 μM veratridine, specific uptake = portion inhibited by 1 mM mexiletine, read-out: Na Channel Inhibition IC50
Method: The [^14C] guanidine uptake experiment was performed by the method of Bonisch et al. (British Journal of Pharmacology 108, 436-442, 1993) with some modifications. The [^14C] guanidine was used as a sodium tracer, and the inhibitory activity on uptake of [^14C] guanidine induced by veratridine as a sodium channel activator into rat cerebral cortex primary neurons was measured.
Pregnant rats (Wistar, female, 19 days of gestation) were anesthetized with ether. The animals were bled to death by giving incision through the carotid artery. The fetuses were taken out of the pregnant rats and after ethanol sterilization, the cerebral cortex was removed from the fetuses. The cerebral cortex was digested with papain and dispersed in culture medium, followed by plating on a poly-L-lysine-coated 96-well white plate at a density of 2.5×10^5 cells/well. Incubation was performed in a CO2 incubator (37° C., 5% CO2) for 2 days.
After each well was washed once with an assay buffer (135 mM choline Cl, 5 mM KCl, 1 mM MgSO4, 5.5 mM glucose, 1 mg/mL BSA, 10 mM Hepes-Tris, pH 7.4), a fresh assay buffer was added to the well, followed by incubation at 25° C. for 10 minutes. Then, a reaction solution (a test compound, [^14C] guanidine and 100 μM, veratridine) was replaced for the buffer, followed by incubation at 25° C. for 15 minutes. The reaction was terminated by washing 3 times with a cold wash buffer (135 mM NaCl, 5 mM KCl, 1 mM MgSO4, 10 mM Hepes-Tris, pH 7.4). To each well, 17 μl of 0.1N NaOH was added. After agitation, 100 μl of scintillator was added to the well and further agitation was continued. The radioactivity was quantified by a liquid scintillation counter. In each experiment, the sodium channel-specific uptake of the whole uptake was designated as portion that was inhibited by 1 mM mexiletine. The action of the test compound on sodium channel is expressed as 50% inhibition concentration (IC50) based on the specific uptake.

## Cc1cccc(C)c1/C=C/C1CCN(C(=O)CN2C[C@H]3C[C@@H]2CN3)CC1 [Example 205, (1R,4R)-2-(2-{4-[(E)-2-(2,6-dimethylphenyl)vinyl]piperidin-1-yl}-2-oxoethyl)-2,5-diazabicyclo[2.2.1]heptane]
[1]
  Anti-STZ-induced pain after oral administration: Latency prolongation: 1.6 s

## Cc1cccc(C)c1/C=C/C1CCN(C(=O)CN2CCOC(CO)C2)CC1 (centres unmarked) [Example 180, [4-(2-{4-[(E)-2-(2,6-dimethylphenyl)vinyl]piperidin-1-yl}-2-oxoethyl)morpholine-2-yl]methanol]
[1]
  Anti-STZ-induced pain after oral administration: Latency prolongation: 2.3 s

## Cc1cccc(C)c1/C=C/C1CCN(C(=O)CNCCO)CC1 [Example 135, 2-[(2-{4-[(E)-2-(2,6-dimethylphenyl)vinyl]piperidin-1-yl}-2-oxoethyl)amino]ethanol]
[1]
  Anti-STZ-induced pain after oral administration: Latency prolongation: 2.4 s

## Cc1cccc(C)c1/C=C/C1CCN(C(=O)CN2CCOCC2)CC1 [Example 179, 4-(2-{4-[(E)-2-(2,6-dimethylphenyl)vinyl]piperidin-1-yl}-2-oxoethyl)morpholine]
[1]
  Anti-STZ-induced pain after oral administration: Latency prolongation: 1.8 s

## CCc1cccc(CC)c1/C=C/C1CCNCC1 [Example 40]
[2]
  IC50: 8.4 µM

## Cc1cccc(C)c1/C=C/C1CCN(C(=O)CN2CCN(C3CCCCC3)CC2)CC1 [Example 176]
[2]
  IC50: 2.5 µM

## Cc1cccc(C)c1/C=C/C1CCN(C(=O)CN2CCCCC2C(N)=O)CC1 (centres unmarked) [Example 150, 1-(2-{4-[(E)-2-(2,6-dimethylphenyl)vinyl]piperidin-1-yl}-2-oxoethyl)piperidine-2-carboxamide]
[1]
  Anti-STZ-induced pain after oral administration: Latency prolongation: 1.7 s

## Cc1cccc(C)c1/C=C/C1CCN(C(=O)CN2CCC(Cc3ccccc3)CC2)CC1 [Example 165]
[2]
  IC50: 2.3 µM

## Cc1cccc(C)c1/C=C/C1CCN(C(=O)[C@@H]2CCCN2)CC1 [Example 114, 4-[(E)-2-(2,6-dimethylphenyl)vinyl]-1-[(2S)-pyrolidin-2-ylcarbonyl]piperidine]
[1]
  Anti-STZ-induced pain after oral administration: Latency prolongation: 2.4 s

## Cc1cccc(C)c1/C=C/C1CCN(C(=O)Cn2ccnc2)CC1.Cl [Example 125, 4-[(E)-2-(2,6-dimethylphenyl)vinyl]-1-(1H-imidazol-1-ylacetyl)piperidine monohydrochloride]
[1]
  Anti-STZ-induced pain after oral administration: Latency prolongation: 1.6 s

## Cc1cccc(C)c1/C=C/[C@H]1CCNC[C@@H]1C [Example 68, 4-[(E)-2-(2,6-dimethylphenyl)vinyl]-3-methylpiperidine hydrochloride]
[2]
  IC50: 8.7 µM

## O=C(CN1CCOCC1)N1CCC(/C=C/c2c(Cl)cccc2Cl)CC1 [Example 98]
[2]
  IC50: 12 µM

## Cc1cccc(C)c1/C=C/c1ccncc1 [Example 25-2]
[2]
  IC50: 29 µM

## Cc1cccc(C)c1/C=C/C1CCN(C(=O)CN2CCNCC2)CC1 [Example 204, 1-(2-{4-[(E)-2-(2,6-dimethylphenyl)vinyl]piperidin-1-yl}-2-oxoethyl)piperazine]
[1]
  Anti-STZ-induced pain after oral administration: Latency prolongation: 2.4 s

## Cc1cccc(C)c1/C=C/C1CCN(C(=O)CNC2COC2)CC1 [Example 126, N-(2-{4-[(E)-2-(2,6-dimethylphenyl)vinyl]piperidin-1-yl}-2-oxoethyl)oxetane-3-amine]
[1]
  Anti-STZ-induced pain after oral administration: Latency prolongation: 1.5 s

## Cc1cccc(C)c1/C=C/C1CCN(C(=O)CNCCN)CC1 [Example 198]
[2]
  IC50: 8.5 µM

## Cc1cccc(C)c1/C=C/C1CCCCN1C(=O)CN1CCOCC1 (centres unmarked) [Example 102, 4-(2-{2-[(E)-2-(2,6-dimethylphenyl)vinyl]piperidin-1-yl}-2-oxoethyl)morpholine]
[1]
  Anti-STZ-induced pain after oral administration: Latency prolongation: 2.1 s

## CCCCN(CCCC)C(=O)c1cc(C)c(/C=C/C2CCNCC2)c(C)c1 [Example 51]
[2]
  IC50: 15 µM

## Cc1cccc(C)c1C=CC1CCN(C(=O)CN2CCCC3CCCCC32)CC1 (centres unmarked) [Example 192]
[2]
  IC50: 1.1 µM

## Cc1cccc(C)c1/C=C/C1CCN(C(=O)C(C)(C)N)CC1 [Example 108, (2-{4-[(E)-2-(2,6-dimethylphenyl)vinyl]piperidin-1-yl}-1,1-dimethyl-2-oxoethyl)amine monohydrochloride]
[1]
  Anti-STZ-induced pain after oral administration: Latency prolongation: 1.8 s

## CC(=O)NCCNCC(=O)N1CCC(/C=C/c2c(C)cccc2C)CC1 [Example 134, N-{2-[(2-[4-[(E)-2-(2,6-dimethylphenyl)vinyl]piperidin-1-yl]-2-oxoethyl)amino]ethyl}acetamide]
[1]
  Anti-STZ-induced pain after oral administration: Latency prolongation: 1.7 s

## Cc1cccc(C)c1C=CC1CCN(C(=O)CNCC2CCCO2)CC1 (centres unmarked) [Example 130]
[2]
  IC50: 3.4 µM

## Cc1cccc(C)c1C=CC1CCN(C(=O)CN2CC(C)CC(C)C2)CC1 (centres unmarked) [Example 153, 1-(2-{4-(E)-2-(2,6-dimethylphenyl)vinyl]piperidin-1-yl}-2-oxoethyl)-3,5-dimethyl piperidine]
[2]
  IC50: 2.4 µM

## Cc1cccc(C)c1/C=C/C1CCN(C(=O)CN2CCCOCC2)CC1 [Example 189, 4-(2-{4-[(E)-2-(2,6-dimethylphenyl)vinyl]piperidin-1-yl}-2-oxoethyl)-1,4-oxazepane]
[1]
  Anti-STZ-induced pain after oral administration: Latency prolongation: 2.4 s

## Cc1cccc(C)c1/C=C/C1CCN(C(=O)CN2CCSCC2)CC1 [Example 185]
[2]
  IC50: 6.7 µM

## COCCN1CCC(/C=C/c2c(C)cccc2C)CC1 [Example 75]
[2]
  IC50: 3.5 µM

## Cc1cccc(C)c1/C=C/C1CCCN(C(=O)CN2CCOCC2)C1 (centres unmarked) [Example 101]
[1]
  Anti-STZ-induced pain after oral administration: Latency prolongation: 2.0 s

## Cc1cccc(C)c1/C=C/C1CCN(C(=O)CN2CCC(N3CCCC3)CC2)CC1 [Example 170, 4-[(E)-2-(2,6-dimethylphenyl)vinyl]-1-[(4-pyrolidin-1-ylpiperidin-1-yl)acetyl]piperidine]
[1]
  Anti-STZ-induced pain after oral administration: Latency prolongation: 1.7 s

## Cc1cccc(C)c1/C=C/C1CCN(C(=O)c2nc(N)n[nH]2)CC1 [Example 87, 5-({4-[(E)-2-(2,6-dimethylphenyl)vinyl]piperidin-1-yl}carbonyl)-1H-1,2,4-triazol-3-amine]
[1]
  Anti-STZ-induced pain after oral administration: Latency prolongation: 1.6 s

## Cc1cc(Oc2ccccc2)cc(C)c1/C=C/C1CCN(C(=O)CN2CCOCC2)CC1 [Example 99, 4-(2-{4-[(E)-2-(2,6-dimethyl-4-phenoxyphenyl)vinyl]piperidin-1-yl}-2-oxoethyl) morpholine]
[1]
  Anti-STZ-induced pain after oral administration: Latency prolongation: 1.7 s

## COc1cc(C)c(/C=C/C2CCNCC2)c(C)c1 [Example 54]
[2]
  IC50: 19 µM

## Cc1cccc(C)c1/C=C/C1CCN(C(=O)CNC2CCOCC2)CC1 [Example 129, (2-{4-[(E)-2-(2,6-dimethylphenyl)vinyl]piperidin-1-yl}-2-oxoethyl)tetrahydro-2H-pyran-4-ylamine]
[2]
  IC50: 4.2 µM

## Cc1cccc(C)c1/C=C/C1CCN(C(=O)CN2CCC(N)CC2)CC1 [Example 203, 1-(2-{4-[(E)-2-(2,6-dimethylphenyl)vinyl]piperidin-1-yl}-2-oxoethyl)piperidine-4-amine]
[1]
  Anti-STZ-induced pain after oral administration: Latency prolongation: 1.7 s

## Cc1cccc(C)c1/C=C/C1CCN(C(=O)CN(C)CCN2CCOCC2)CC1 [Example 213]
[2]
  IC50: 3.7 µM

## Cc1cccc(C)c1/C=C/CC1CCN(C(=O)CN2CCOCC2)CC1 [Example 103]
[2]
  IC50: 5 µM

## Cc1cc(C#N)cc(C)c1/C=C/C1CCNCC1 [Example 49, 3,5-dimethyl-4-[(E)-2-piperidin-4-ylvinyl]benzonitrile]
[1]
  Anti-STZ-induced pain after oral administration: Latency prolongation: 2.2 s

## Cc1cc(Br)cc(C)c1/C=C\C1CCNCC1 [Example 56]
[2]
  IC50: 6.7 µM

## Cc1cccc(C)c1/C=C/C1CCN(Cc2ccccc2)CC1 [Example 73, 1-benzyl-4-[(E)-2-(2,6-dimethylphenyl)vinyl]piperidine]
[2]
  IC50: 1.9 µM

## Cc1cccc(C)c1C=CC1CCN(C(=O)C2COCCN2)CC1 (centres unmarked) [Example 122]
[2]
  IC50: 9.4 µM

## Cc1cccc(C)c1/C=C/C1CCN(C(=O)CN2CC=CC2)CC1 [Example 145]
[2]
  IC50: 6 µM

## Cc1cccc(C)c1C=CC1CCN(C(=O)CN(C)CC2CCCO2)CC1 (centres unmarked) [Example 211]
[2]
  IC50: 3 µM
